Results reported in patent US20220125839A1, “COMBINATION OF T-CELL THERAPY AND TARGETED THERAPY FOR TREATING THERAPY-RESISTANT MELANOMA WITH MUTATIONS IN THE BRAF GENE” (H. LEE MOFFITT CANCER CENTER AND RESEARCH INSTITUTE, INC., priority 2019, published 2022).

How the values were obtained:
[1] = system: WM35-BR cells; experiment: Granzyme B (GrzB) uptake by WM35-BR cells; format: cell-based, human; details: 10 μM overnight, then inactive GrzB one hour
Procedure: Cells were then stained with Aqua dead cell staining kit (Thermo Fischer Scientific) for 15 min at 4° C. fixed in fixation buffer (BD Cytofix/Cytoperm; Cat. no. 51-2090). Granzyme B antibody (Cat. no. 561142) or its isotype control (BD Bioscience; Cat. no. 555749) were used. Stained cells were run on LSR14. Data was analyzed by FlowJo software (Tree Star).

[2] = system: M6PR; experiment: IHC staining of M6PR in WM35 tumors in NOD/SCID mice; format: in vivo; details: for tumor M6PR levels by immunohistochemistry: 50 mg/kg oral gavage
Procedure: In order to establish xenograft models, cultured WM35, WM35-BR, WM983B-BR-pAHygCMV2 and WM983B-BR-M6PR/IGF2R cells were harvested, suspended in sterile PBS, mixed in 2:1 ratio with Matrigel and injected subcutaneously into the left flank of mice (1-3×10^6 cells per mouse). PLX4720 was administered daily at dose 50 mg/kg for 10 days via oral gavage. As a control, mice treated with vehicle alone (2% DMSO, 50% PEG 300, 5% Tween 80) were used. Treatments were started when tumors were 0.5-0.8 cm in diameter.
Tumor tissues were harvested, fixed overnight with 4% paraformaldehyde (Electron Microscopy Science; Cat. no. 15710) at 4° C., embedded in paraffin blocks and 4-5 μm thick sections of the tissue were prepared and stained with polyclonal goat M6PR/IGF2R primary antibody (R&D Systems; Cat. no. AF2447; 5 μg/mL per samples) O/N at 4° C. Biotinylated 2nd antibody in 1:200 dilution was used for 30 min at RT followed by application of ABC solution ([…] and biotinylated horseradish peroxidase) for 30 min at RT. DAB 0.05% solution was applied for 3-4 min at RT. Hematoxylin was used for counterstaining the nucleus. Images were analyzed using Nis-Elements Ar (Advanced Research) Nikon 80i Upright Microscope with 40×N.A. objective. Each slide was scanned, images were manually captured at separate X, Y locations and a multipoint ND document was created point by point. A threshold value was defined for each image (for brown M6PR staining) using the single point selection tool. Results were exported to Excel for further analysis. (Acquisition Software: Nikon NIS-Elements Br (Basic research) 4.0, Camera Name: DS-Ri1-U3 40× Objective, Numerical Aperture: 0.95, Camera Settings: Format: 1280×1024 Fine, Exposure: ME 80 ms (−+0.0 EV))
Since hypoxia is an important component of the tumor microenvironment, we evaluated the effect of hypoxia on PLX4720-induced M6PR up-regulation. WM983B melanoma cells were exposed to 0.5% 02 during PLX4720 treatment. […] To understand the effect of PLX4720 on M6PR expression in vivo, WM35 tumor cells were injected s.c. into immune deficient NOD/SCID mice. When tumors reached 0.5-0.8 cm in diameter, mice were treated with vehicle or 50 mg/kg PLX4720 by oral gavage for 3 or 5 consecutive days.

[3] = system: M6PR; experiment: IHC staining of M6PR in WM35-BR tumors in NOD/SCID mice; format: in vivo
Procedure: Tumor tissues were harvested, fixed overnight with 4% paraformaldehyde (Electron Microscopy Science; Cat. no. 15710) at 4° C., embedded in paraffin blocks and 4-5 μm thick sections of the tissue were prepared and stained with polyclonal goat M6PR/IGF2R primary antibody (R&D Systems; Cat. no. AF2447; 5 μg/mL per samples) O/N at 4° C. Biotinylated 2nd antibody in 1:200 dilution was used for 30 min at RT followed by application of ABC solution (avidin dehydroxygenase and biotinylated horseradish peroxidase) for 30 min at RT. DAB 0.05% solution was applied for 3-4 min at RT. Hematoxylin was used for counterstaining the nucleus. Images were analyzed using Nis-Elements Ar (Advanced Research) Nikon 80i Upright Microscope with 40×N.A. objective. Each slide was scanned, images were manually captured at separate X, Y locations and a multipoint ND document was created point by point. A threshold value was defined for each image (for brown M6PR staining) using the single point selection tool. […]
WM35-BR tumor cells were injected subcutaneously to the flank of NOD/SCID mice and once the average tumor area reached around 40-50 mm2 in size, mice were treated with vehicle or 50 mg/kg PLX4720 by oral gavage for 5 days. After 5 days of PLX4720 treatment, tumors were harvested at different time points and M6PR expression in tumor tissues was detected by IHC staining.

[4] = system: BRAFV600E mouse melanoma transplants; details: in vivo; cited from earlier work

## CCCS(=O)(=O)Nc1ccc(F)c(C(=O)c2c[nH]c3ncc(Cl)cc23)c1F [PLX4720]
[1]
  intracellular GrzB levels: significantly higher amount of GrzB than DMSO treated cells
[2]; 3 days after start of the treatment
  tumor M6PR levels by immunohistochemistry: significant increase in tumor M6PR levels
[2]; 5 days after start (2 days later)
  tumor M6PR levels by immunohistochemistry: further increased
[2]; 3 days after finish of the treatment
  tumor M6PR expression after finish of the treatment: remained high
[2]; day 6 after finish
  tumor M6PR expression after finish of the treatment: slight decrease
[2]; day 9 after finishing the treatment
  tumor M6PR expression after finish of the treatment: returned to the pretreatment level
[3]; 50 mg/kg oral gavage for 5 days
  M6PR in tumor tissues by IHC: marked up-regulation of M6PR in tumor tissues, which was lower than that observed in sensitive cell lines
[3]; compared with sensitive lines
  M6PR expression after treatment was stopped: decreased more rapidly after treatment was stopped
[4]
  CD8+T/FoxP3+CD4+ T cell ratio and NK cells: robust increase in the CD8+T/FoxP3+CD4+ T cell ratio and in NK cells
  tumor CCL2 expression: decreased tumor CCL2 expression
  tumor immunogenicity: did not directly increase tumor immunogenicity
